Data from patent publication US10835556B2, “Hydrolyzed tetravalent metal salts and methods of biofilm inhibition” (THE BOARD OF TRUSTEES OF THE UNIVERSITY OF ILLINOIS, priority 2018, dated 2020).
Values joined by “and” are separate entries in the source; they are usually repeats but may differ in a detail not shown here. Equal entries are not always repeated. “Also recorded” adds a separate entry of the source. Where two headings read alike, the source gives them in different places.

Legend:
[1] = test system: S. mutans UA159; assay: In vitro static biofilm inhibition assay (crystal violet), incl. dose response study; format: cell-based, Streptococcus mutans
[2] = test system: S. sobrinus 6715; assay: In vitro static biofilm inhibition assay (crystal violet); format: cell-based, Streptococcus sobrinus; details: 125 μM; for inhibition of biofilm formation of S. sobrinus 6715: BHI 1% sucrose, 20 h
[3] = test system: S. mutans; format: cell-based, Streptococcus mutans
[4] = test system: all strains of bacteria tested; parameters: key to the marks not given beside the values; details: 1 mM-metal
Description: Tooth application may involve exposure to bacteria outside the oral cavity, including the skin and digestive system. CAN, CAS and AgNO3 (1 mM-metal) were tested for their effect on in vitro planktonic growth of bacteria under the conditions listed in FIG. 9.

[5] = test system: human telomerase immortalized gingival keratinocytes; details: 24 h incubation, DermaLife K keratinocyte culture media, MTS assay
[6] = test system: S. mutans; details: 500 μM, 6 h on 6 h-grown biofilm
Description: (§1) Potential mechanisms of biofilm inhibition by CeO2-NP were first explored by testing the effect of CAS and CAN on planktonic growth (FIG. 8). […] To further explore potential extracellular mechanisms of biofilm inhibition, dispersal assays were carried out on existing S. mutans and S. sobrinus biofilms grown statically for 6 h as described above (96-well plate, BHI, 1% sucrose). After 6 h, the planktonic cells were removed, the adherent biofilm rinsed (0.9% NaCl) and replaced with fresh 200 μL BHI (positive control) or BHI/500 μM CAS (test wells). All wells were allowed to incubate an additional 6 h after which the adherent biofilm was washed, stained and quantified via UV-Vis analysis (37). Biofilm dispersal was calculated similar to inhibition in Equation I via UV-Vis.

[7] = test system: S. sobrinus; details: 500 μM, 6 h on 6 h-grown biofilm
Description: as §1

Compound: O=[N+]([O-])[O-].[Ag+] [AgNO3, Silver Nitrate, reference compound]
- effect on S. mutans biofilm formation (in words) [1]: slight increase in biofilm growth
- effect on biofilm growth of S. sobrinus (in words) [2]: incapable of limiting biofilm growth

Compound: O=[N+]([O-])[O-].O=[N+]([O-])[O-].O=[N+]([O-])[O-].O=[N+]([O-])[O-].O=[N+]([O-])[O-].O=[N+]([O-])[O-].[Ce+4].[NH4+].[NH4+] [CAN, ceric ammonium nitrate]
- inhibition of S. mutans biofilm growth ([1]; 125 µM): 51% and ~40%
- inhibition of biofilm formation of S. sobrinus 6715 [2]: 44%
- effect on planktonic growth of S. mutans [3]: did not inhibit; also recorded: slight growth lag; also recorded: slight lagging effect; also recorded: Non-inhibitory effect
- visible in vitro planktonic growth of bacteria [4]: ++
- toxicity on gingival keratinocytes as compared to AgNO3 [5]: reduced toxicity

Compound: O=[N+]([O-])[O-].O=[N+]([O-])[O-].O=[N+]([O-])[O-].[Ce+3] [Ce(NO3)3, Cerium (III) nitrate, reference compound]
- effect on S. mutans biofilm formation (in words) [1]: slight increase in biofilm growth; also recorded: inactive
- effect on biofilm growth of S. sobrinus (in words) [2]: incapable of limiting biofilm growth

Compound: N.N.O=[N+]([O-])O.O=[N+]([O-])O.O=[N+]([O-])[O-].O=[N+]([O-])[O-].O=[N+]([O-])[O-].O=[N+]([O-])[O-].[Ce+4] [CAN, ceric ammonium nitrate]
- IC50 ([1]; read-out: 50% inhibitory concentration (IC50) of biofilm formation): 137 µM

Compound: O=S(=O)([O-])[O-].[Zn+2] [ZnSO4, reference compound]
- effect on S. mutans biofilm formation (in words) ([1]; 125 μM (metal ion/Ce), BHI 1% sucrose, 37° C., 5% CO2, 20 h): slight increase in biofilm growth
- effect on biofilm growth of S. sobrinus (in words) [2]: incapable of limiting biofilm growth

Compound: ceric ammonium sulfate [CAS]
- inhibition of S. mutans biofilm growth ([1]; 125 μM): 40%
- inhibition of biofilm formation of S. sobrinus 6715 [2]: 35%
- effect on planktonic growth of S. mutans [3]: did not inhibit; also recorded: non-significant growth effect; also recorded: Non-inhibitory effect
- biofilm dispersal, S. mutans [6]: 6%
- biofilm dispersal, S. sobrinus [7]: 8%
- visible in vitro planktonic growth of bacteria [4]: ++
- toxicity on gingival keratinocytes as compared to AgNO3 [5]: reduced toxicity

Compound: N.N.O=S(=O)(O)O [(NH4)2SO4, ammonium sulfate, reference compound]
- activity in limiting planktonic growth [3]: not active
